Measurements taken from PubChem BioAssay (NCI).
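Each compound was tested at five concentrations against cells in 96-well plates for 48 hours. At the GI50, growth is halved. Definition used: TGI = concentration required for complete inhibition of growth.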

What was measured:
Assay in all cases: NCI anticancer screen, dose series, 48 h
[1] = system: SF-295 CNS
[2] = system: MALME-3M melanoma
[3] = system: K-562 leukemia
[4] = system: DU-145 prostate
[5] = system: NCI-H23 lung
[6] = system: SK-MEL-2 melanoma
[7] = system: SW-620 colon
[8] = system: UACC-62 melanoma
[9] = system: NCI-H226 lung
[10] = system: PC-3 prostate
[11] = system: UACC-257 melanoma
[12] = system: MOLT-4 leukemia
[13] = system: RXF 393 renal
[14] = system: OVCAR-4 ovarian
[15] = system: SK-MEL-28 melanoma
[16] = system: UO-31 renal
[17] = system: SNB-19 CNS
[18] = system: 786-0 renal
[19] = system: TK-10 renal
[20] = system: MCF7 breast
[21] = system: HL-60(TB) leukemia
[22] = system: HT29 colon
[23] = system: HOP-62 NSCLC
[24] = system: SK-MEL-5 melanoma
[25] = system: RPMI-8226 leukemia
[26] = system: HOP-92 NSCLC
[27] = system: NCI-H460 lung
[28] = system: NCI/ADR-RES ovarian
[29] = system: KM12 colon
[30] = system: HCC-2998 colon
[31] = system: SNB-75 CNS
[32] = system: IGROV1 ovarian
[33] = system: SN12C renal
[34] = system: SF-268 CNS
[35] = system: SK-OV-3 ovarian
[36] = system: OVCAR-5 ovarian
[37] = system: EKVX NSCLC
[38] = system: OVCAR-3 ovarian
[39] = system: BT-549 breast
[40] = system: A498 renal
[41] = system: T-47D breast
[42] = system: U251 CNS
[43] = system: ACHN renal
[44] = system: HS 578T breast
[45] = system: LOX IMVI melanoma
[46] = system: A549 NSCLC
[47] = system: M14 melanoma
[48] = system: OVCAR-8 ovarian
[49] = system: SF-539 CNS
[50] = system: CAKI-1 renal
[51] = system: HCT-116 colon
[52] = system: CCRF-CEM leukemia
[53] = system: COLO 205 colon
[54] = system: NCI-H522 lung
[55] = system: HCT-15 colon
[56] = system: MDA-MB-231 breast
[57] = system: MDA-MB-435

Cc1ccc(S(=O)(=O)n2cc(C(=O)C(=O)Nc3ccncc3)c3ccccc32)cc1
GI50 [1]: 1.67 µM
TGI [1]: 9.57 µM
GI50 [2]: 43 µM
TGI [2]: > 100 µM
GI50 [3]: 0.522 µM
TGI [3]: > 100 µM
GI50 [4]: 3.34 µM
TGI [4]: > 100 µM
GI50 [5]: 0.556 µM
TGI [5]: > 60.7 µM
GI50 [6]: 5.76 µM
TGI [6]: > 71.4 µM
GI50 [7]: 1.23 µM
TGI [7]: > 100 µM
GI50 [8]: 0.829 µM
TGI [8]: > 46.7 µM
GI50 [9]: 8.6 µM
TGI [9]: > 100 µM
GI50 [10]: 1.6 µM
TGI [10]: > 100 µM
GI50 [11]: 9.03 µM
TGI [11]: 98.1 µM
GI50 [12]: 1.77 µM
TGI [12]: > 76.5 µM
GI50 [13]: 2.7 µM
TGI [13]: 9.29 µM
GI50 [14]: 4.22 µM
TGI [14]: > 100 µM
GI50 [15]: 4.17 µM
TGI [15]: > 100 µM
GI50 [16]: 5.45 µM
TGI [16]: > 100 µM
GI50 [17]: 7.37 µM
TGI [17]: > 100 µM
GI50 [18]: 3.89 µM
TGI [18]: > 73.2 µM
GI50 [19]: 16.8 µM
TGI [19]: > 100 µM
GI50 [20]: 0.373 µM
TGI [20]: 27.3 µM
GI50 [21]: 0.635 µM
TGI [21]: 3.66 µM
GI50 [22]: 0.464 µM
TGI [22]: 12.1 µM
GI50 [23]: 4.43 µM
TGI [23]: > 100 µM
GI50 [24]: 0.785 µM
TGI [24]: 21.3 µM
GI50 [25]: 1.45 µM
TGI [25]: > 100 µM
GI50 [26]: 0.644 µM
TGI [26]: 7.01 µM
GI50 [27]: 7.05 µM
TGI [27]: 96.8 µM
GI50 [28]: 0.406 µM
TGI [28]: > 34.1 µM
GI50 [29]: 0.595 µM
TGI [29]: > 84.6 µM
GI50 [30]: 4.25 µM
TGI [30]: > 100 µM
GI50 [31]: 1.72 µM
TGI [31]: 16.3 µM
GI50 [32]: 5.74 µM
TGI [32]: > 100 µM
GI50 [33]: 4.79 µM
TGI [33]: > 100 µM
GI50 [34]: 2 µM
TGI [34]: > 100 µM
GI50 [35]: 19.6 µM
TGI [35]: 71.2 µM
GI50 [36]: 8.19 µM
TGI [36]: > 100 µM
GI50 [37]: 3.23 µM
TGI [37]: > 100 µM
GI50 [38]: 0.765 µM
TGI [38]: 16.7 µM
GI50 [39]: 3.62 µM
TGI [39]: > 100 µM
GI50 [40]: 4.11 µM
TGI [40]: 77.6 µM
GI50 [41]: 4.93 µM
TGI [41]: > 100 µM
GI50 [42]: 1.4 µM
TGI [42]: > 56.1 µM
GI50 [43]: 7.82 µM
TGI [43]: > 100 µM
TGI [44]: > 100 µM
GI50 [45]: 1.04 µM
TGI [45]: > 100 µM
GI50 [46]: 16.5 µM
TGI [46]: > 100 µM
GI50 [47]: 0.907 µM
TGI [47]: > 100 µM
GI50 [48]: 3.1 µM
TGI [48]: > 100 µM
GI50 [49]: 1.56 µM
TGI [49]: 6.84 µM
GI50 [50]: 1.82 µM
TGI [50]: > 100 µM
GI50 [51]: 0.465 µM
TGI [51]: 23.1 µM
GI50 [52]: 4.53 µM
TGI [52]: > 100 µM
GI50 [53]: 18.7 µM
TGI [53]: 48.1 µM
GI50 [54]: 0.438 µM
TGI [54]: 12.9 µM
GI50 [55]: 0.555 µM
TGI [55]: > 100 µM
GI50 [56]: 5.92 µM
TGI [56]: > 100 µM

COc1cc2c(cc1OC)[C@@]1(C)C(=O)c3cc4c(cc3[C@H]1N(C)C2=O)OCO4
GI50 [1]: 43.3 µM
TGI [1]: > 100 µM
GI50 [2]: 75.1 µM
TGI [2]: > 100 µM
GI50 [3]: 47.6 µM
TGI [3]: > 100 µM
GI50 [4]: 58.1 µM
TGI [4]: > 100 µM
GI50 [5]: > 100 µM
TGI [5]: > 100 µM
GI50 [6]: 40.4 µM
TGI [6]: > 100 µM
GI50 [7]: 65.4 µM
TGI [7]: > 100 µM
GI50 [8]: 26 µM
TGI [8]: > 100 µM
GI50 [9]: 44.1 µM
TGI [9]: > 100 µM
GI50 [57]: > 100 µM
TGI [57]: > 100 µM
GI50 [10]: 75.2 µM
TGI [10]: > 100 µM
GI50 [11]: 23.7 µM
TGI [11]: 91.9 µM
GI50 [12]: 33.3 µM
TGI [12]: > 100 µM
GI50 [13]: 26.9 µM
TGI [13]: > 100 µM
GI50 [14]: > 100 µM
TGI [14]: > 100 µM
GI50 [15]: > 100 µM
TGI [15]: > 100 µM
GI50 [16]: 34.8 µM
TGI [16]: > 100 µM
GI50 [17]: > 100 µM
TGI [17]: > 100 µM
GI50 [18]: 54.3 µM
TGI [18]: > 100 µM
GI50 [19]: 67.3 µM
TGI [19]: > 100 µM
GI50 [20]: 65.3 µM
TGI [20]: > 100 µM
GI50 [22]: 88 µM
TGI [22]: > 100 µM
GI50 [23]: > 100 µM
TGI [23]: > 100 µM
GI50 [24]: 45.5 µM
TGI [24]: > 100 µM
GI50 [25]: 33.9 µM
TGI [25]: > 100 µM
GI50 [26]: 28.8 µM
TGI [26]: > 100 µM
GI50 [27]: 37.7 µM
TGI [27]: > 100 µM
GI50 [28]: 59.6 µM
TGI [28]: > 100 µM
GI50 [29]: > 100 µM
TGI [29]: > 100 µM
GI50 [30]: 74.7 µM
TGI [30]: > 100 µM
GI50 [32]: 33.9 µM
TGI [32]: > 100 µM
GI50 [33]: 82.4 µM
TGI [33]: > 100 µM
GI50 [34]: 64.6 µM
TGI [34]: > 100 µM
GI50 [35]: 95.5 µM
TGI [35]: > 100 µM
GI50 [36]: > 100 µM
TGI [36]: > 100 µM
GI50 [37]: 55 µM
TGI [37]: > 100 µM
GI50 [38]: 96.2 µM
TGI [38]: > 100 µM
GI50 [39]: 29 µM
TGI [39]: > 100 µM
GI50 [40]: 18.6 µM
TGI [40]: 90.7 µM
GI50 [41]: 37.9 µM
TGI [41]: > 100 µM
GI50 [42]: 34.3 µM
TGI [42]: > 100 µM
GI50 [43]: 52.2 µM
TGI [43]: > 100 µM
GI50 [44]: 41.1 µM
TGI [44]: > 100 µM
GI50 [45]: 48.4 µM
TGI [45]: > 100 µM
GI50 [46]: 62.9 µM
TGI [46]: > 100 µM
GI50 [47]: 82.6 µM
TGI [47]: > 100 µM
GI50 [48]: 29.3 µM
TGI [48]: > 100 µM
GI50 [49]: 24 µM
TGI [49]: 75.7 µM
GI50 [50]: 37.3 µM
TGI [50]: > 100 µM
GI50 [51]: 43.6 µM
TGI [51]: > 100 µM
GI50 [52]: 38 µM
TGI [52]: > 100 µM
GI50 [53]: > 100 µM
TGI [53]: > 100 µM
GI50 [54]: 10.4 µM
TGI [54]: 85.6 µM
GI50 [55]: > 100 µM
TGI [55]: > 100 µM
GI50 [56]: 25 µM
TGI [56]: > 100 µM
